SMILES strings stand for the structures.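 A five-concentration, 48-hour dose response in 96-well plates underlies each endpoint, interpolated linearly between surrounding concentrations. TGI is the concentration that stops growth completely.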

Holding throughout (assay): NCI anticancer screen, dose series, 48 h
Assay [1] has as its system IGROV1 ovarian.
Assay [2] relates to HCT-116 colon.
Assay [3] relates to HCC-2998 colon.
Assay [4] has as its system M14 melanoma.
Assay [5] concerns SK-OV-3 ovarian.
Assay [6] concerns A498 renal.
Assay [7] concerns K-562 leukemia.
The test system of assay [8] is HOP-62 NSCLC.
Assay [9] concerns MDA-MB-231 breast.
In assay [10] the test system is NCI-H522 lung.

With `O=c1c2cc(Br)ccc2ncn1COCc1ccccc1`, the TGI in [1], in assay [2], in assay [3], in assay [4], in assay [5] and in assay [6] was greater than 100 µM each time. Further, the TGI in assay [7] was greater than 100 µM.

On to `C=CCc1ccccc1C1CC2(C(=O)OC)OC1C(C(=O)OC)=C2C(=O)OC` (stereo not drawn), for which the TGI in assay [8], in [1], in [2], in [3], in [4] and in [9] was greater than 10 µM throughout. Also, the TGI in assay [5], in assay [6] and in assay [7] was greater than 10 µM in each case.

`Cn1ccc2c(c1=O)C(=O)OC2(C)C`: the TGI in assay [8], in [1], in [2], in assay [3], in [4] and in assay [9] was greater than 100 µM in each case. In addition, the TGI in assay [5], in [6] and in [7] was greater than 100 µM throughout.

Regarding `COc1cc(CNC(=S)CCCCCCCCCCC(C)C)ccc1O`, the TGI in assay [8], in assay [1], in assay [2], in [3], in assay [4] and in assay [9] was greater than 100 µM each time. The TGI in assay [5], in [6] and in assay [7] was greater than 100 µM throughout.

`COc1cc2oc(=O)cc(C)c2c(OC)c1OC(C)=O`: the TGI in assay [8], in assay [1], in [2], in assay [4], in assay [9] and in assay [5] was greater than 100 µM in each case. Also, the TGI in assay [6] and in assay [7] was greater than 100 µM in each case.

For the molecule `O=P(O)(O)C=C=C1CCCCC1`, the TGI in assay [8], in assay [1], in assay [2], in assay [3], in assay [10] and in assay [4] was greater than 100 µM throughout. In addition, the TGI in assay [5], in assay [6] and in assay [7] was greater than 100 µM throughout.

In the case of `COC(=O)[C@@]1(C)CCC[C@]2(C(=O)O)C3Cc4occc4[C@H](C)[C@@H]3CCC21` (stereo partly drawn), the TGI in assay [8], in assay [1], in assay [2], in [3], in assay [4] and in assay [9] was greater than 100 µM in each case. The TGI in assay [5], in assay [6] and in assay [7] was greater than 100 µM each time.

`Cc1nc2c(n1-c1ccccc1)C(=O)c1ccccc1C2=O`: the TGI in [8] is greater than 100 µM; in assay [2], 73.1 µM; in assay [3] it was greater than 100 µM; in assay [10], 71.8 µM; in assay [4], greater than 100 µM; in [5], greater than 100 µM. For the same molecule, the TGI in assay [6] and in assay [7] was greater than 100 µM each time.

Regarding `Cc1nc2cccc(F)c2c(=O)n1-c1nnc(C(F)(F)F)s1`, the TGI in [8], in assay [1], in [2], in assay [3], in assay [10] and in [4] was greater than 10 µM each time. In addition, the TGI in assay [9], in [5] and in assay [7] was greater than 10 µM throughout.

For the molecule `CCn1c(=O)c2c3ccc(OC(C)=O)cc3[nH]c2c2ccc(OC(C)=O)cc21`, the TGI was greater than 100 µM in [8]; greater than 100 µM in assay [1]; 30.1 µM in assay [2]; 54.4 µM in assay [3]; greater than 100 µM in [10]; greater than 100 µM in [4]. The TGI in assay [9], in [5] and in [7] was greater than 100 µM in each case.

For `COc1cc2c(cc1OC)C(=O)/C(=C/c1ccc(O)cc1)CC2`, the TGI in assay [8], in [1], in assay [2], in assay [3], in assay [4] and in assay [9] was greater than 10 µM in each case. Further, the TGI in assay [5] and in assay [7] was greater than 10 µM in each case.

As to `Cc1nc(Nc2nc3ccccc3[nH]2)nc(Cl)c1CCCl`, the TGI in [1], in [2], in assay [10], in assay [4], in assay [9] and in assay [6] was greater than 100 µM each time. Further, the TGI in [7] was greater than 100 µM.

Consider `CC1(C)C=[N+]([O-])C(C)(C)N1O`, for which the TGI in assay [8], in [2], in assay [3], in [10], in assay [4] and in [9] was greater than 10 µM in each case. The molecule further registered a TGI in assay [7] greater than 10 µM.

For `CCN1CCCn2c(=O)[nH]c3cc(Br)cc1c32`, the TGI in assay [8], in assay [1], in assay [2], in [3], in assay [4] and in assay [9] was greater than 100 µM each time. In addition, the TGI in [5], in assay [6] and in assay [7] was greater than 100 µM in each case.

`O=C(O)Cc1ccccc1CCc1ccccc1Cl`: the TGI in assay [1], in assay [2], in [3], in [10], in [4] and in [5] was greater than 100 µM each time. The TGI in assay [6] and in assay [7] was greater than 100 µM in each case.

Consider `CCOC(=O)CCC(NC(=O)OCc1ccccc1)C(=O)NC(CCC(=O)OCC)C(=O)NC(CCC(=O)OCC)C(=O)NNC(=O)OC(C)(C)C` (stereo not drawn), for which the TGI in assay [8], in assay [1], in assay [2], in [3], in assay [4] and in assay [9] was greater than 100 µM each time. The TGI in assay [6] and in assay [7] was greater than 100 µM in each case.

Values taken from PubChem BioAssay (NCI).
